Experiment: Inhibition of Cyclophilin D (unknown origin) activity preincubated for 15 mins followed Suc-AAPF-pNA substrate addition by chymotrypsin coupled based spectrophotometry assay

Structure (SMILES)	Ki [µM]
Nc1ccc(CNC(=O)NCC(=O)N2CCCC2)cc1	4.9
CCOC(=O)CNC(=O)NCc1ccc(NC(C)=O)cc1	2.6

— BindingDB's records for doi:10.1021/acs.jmedchem.5b01801 (University of Liverpool, 2016)
